In brackets after ≈: the same amount, converted by molar mass. Activity calls are given as the source filed them. No cut-off for these calls is given here.
Columns and labels:
Staphylococcus aureus [1] = assay: Bactericidal activity against methicillin-resistant Staphylococcus aureus ATCC 43300 by Mueller Hinton broth based assay; type: functional; conditions: time <= 6 hrs
Staphylococcus aureus [2] = assay: (§1) Antibacterial activity against methicillin-resistant Staphylococcus aureus ATCC 43300 infected in sepsis mouse model assessed as decrease in IL-6 level in blood at 5 to 10 mg/kg pre-infected with bacteria for 1 hrs followed by continuous compound administration at 12 hrs intervals for 2 days; type: functional, organism-based; conditions: dose 5-10 mg/kg, time 2.0 day
Staphylococcus aureus [3] = assay: Inhibition of biofilm formation in methicillin-resistant Staphylococcus aureus ATCC 43300 at 16 microg/ml relative to control; type: functional
Staphylococcus aureus [4] = assay: as §1, with “reduction” for “decrease”, “bacterial load” for “IL-6 level”, “kidney” for “blood”, “at” for “at 5 to”, “days (reference value: 6.75 log10CFU/g)” for “days”; type: functional; conditions: time 2 day
Cell membrane [5] = assay: Disruption of cell membrane in methicillin-resistant Staphylococcus aureus ATCC 43300 assessed as appearance of broken surface by scanning electron microscopic analysis; type: cell membranes
Enterococcus faecalis = assay: Antibacterial activity against vancomycin-susceptible Enterococcus faecalis ATCC 29212; type: functional
Staphylococcus aureus [6] = assay: as §1, with “reduction” for “decrease”, “bacterial load” for “IL-6 level”, “5” for “5 to 10”, “days (reference value: 3.69 log10CFU/ml)” for “days”; type: functional; conditions: time 2 day
Cell membrane [7] = assay: Disruption of cell membrane integrity in methicillin-resistant Staphylococcus aureus ATCC 43300 assessed as appearance of blue fluorescence by DAPI/PI staining based microscopic analysis; type: cell membranes
Staphylococcus aureus [8] = assay: Induction of ROS production in methicillin-resistant Staphylococcus aureus ATCC 43300 assessed as fold increase in ROS level at 32 microg/ml by DCFH-DA staining based analysis; conditions: dose 32 µg/ml
Staphylococcus aureus [9] = assay: Bactericidal activity against methicillin-resistant Staphylococcus aureus ATCC 43300 assessed as bacterial killing at 16 microg/ml measured after 8 hrs by time-kill kinetics analysis relative to control; type: functional; conditions: dose 16 µg/ml
Klebsiella pneumoniae = assay: Antibacterial activity against Klebsiella pneumoniae ATCC 10031; type: functional
Staphylococcus aureus [10] = assay: Disruption of preformed biofilm in methicillin-resistant Staphylococcus aureus ATCC 43300 assessed as eradication of biofilm at 8 microg/ml by crystal violet staining based analysis relative to control; type: functional; conditions: dose 8 µg/ml
Staphylococcus aureus [11] = assay: as §1, with “reduction” for “decrease”, “number of surviving bacterial colonies” for “IL-6 level”, “spleen” for “blood”, “5” for “5 to 10”, “days relative to control” for “days”; type: functional; conditions: time 2 day
Staphylococcus aureus [12] = assay: as §1, with “reduction” for “decrease”, “pathological damages” for “IL-6 level”, “spleen” for “blood”, “days by H and E staining based analysis” for “days”; type: functional, organism-based; conditions: dose 5-10 mg/kg, time 2.0 day
Staphylococcus aureus [13] = assay: as §1, with “reduction” for “decrease”, “bacterial load” for “IL-6 level”, “liver” for “blood”, “at” for “at 5 to”, “days (reference value: 7.16 log10CFU/g)” for “days”; type: functional; conditions: time 2 day
Bacillus subtilis = assay: Antibacterial activity against penicillin-susceptible Bacillus subtilis ATCC 9372; type: functional
Escherichia coli = assay: Antibacterial activity against penicillin-susceptible Escherichia coli ATCC 25922; type: functional
Staphylococcus aureus [14] = assay: Bacteriostatic activity against methicillin-resistant Staphylococcus aureus ATCC 43300 assessed as inhibition of bacterial growth at 2 times of MIC measured after 24 hrs by time-kill kinetic analysis; type: functional, organism-based
Staphylococcus aureus [15] = assay: as §1, with “reduction” for “decrease”, “number of surviving bacterial colonies” for “IL-6 level”, “at” for “at 5 to”, “days relative to control” for “days”; type: functional; conditions: time 2 day
Cell membrane [16] = assay: Induction of cytoplasmic membrane depolarization in methicillin-resistant Staphylococcus aureus ATCC 43300 assessed as increase in fluorescence intensity by DiSC3(5) dye-based fluorescence assay; type: cell membranes
Cell membrane [17] = assay: Induction of cytoplasmic membrane depolarization in methicillin-resistant Staphylococcus aureus ATCC 43300 assessed as increase in fluorescence intensity at 2 microg/ml by DiSC3(5) dye-based fluorescence assay; type: cell membranes; conditions: dose 2.0 µg/ml
Staphylococcus aureus [18] = assay: Bactericidal activity against methicillin-resistant Staphylococcus aureus ATCC 43300 in presence of 50% human plasma by Mueller Hinton broth based assay; type: functional
Staphylococcus aureus [19] = assay: Selectivity ratio of MBC for bactericidal activity against methicillin-resistant Staphylococcus aureus ATCC 43300 preincubated with 50% human plasma upto 6 hrs to MBC for bactericidal activity against methicillin-resistant Staphylococcus aureus ATCC 43300; type: functional
Cell membrane [20] = assay: Induction of cytoplasmic membrane depolarization in methicillin-resistant Staphylococcus aureus ATCC 43300 assessed as fold increase in fluorescence intensity at 16 microg/ml measured within 20 min by DiSC3(5) dye-based fluorescence assay; type: cell membranes; conditions: dose 16.0 µg/ml
Staphylococcus aureus [21] = assay: as §1, with “reduction” for “decrease”, “bacterial load” for “IL-6 level”, “spleen” for “blood”, “5” for “5 to 10”, “days (reference value: 7.45 log10CFU/g)” for “days”; type: functional; conditions: time 2 day
Staphylococcus aureus [22] = assay: Bactericidal activity against methicillin-resistant Staphylococcus aureus ATCC 43300 assessed as reduction in bacterial growth; type: functional, organism-based
[23] = Selectivity index, ratio of HC50 for hemolytic activity in sheep RBC to MIC for antibacterial activity against methicillin-resistant Staphylococcus aureus ATCC 43300; type: toxicity; conditions: sheep red blood cells (erythrocytes), read-out: Selectivity Index
Cell membrane [24] = assay: Induction of cell membrane disruption in methicillin-resistant Staphylococcus aureus ATCC 43300 assessed as increase in DNA leakage; type: cell membranes
Staphylococcus aureus [25] = assay: as §1, with “reduction” for “decrease”, “bacterial load” for “IL-6 level”, “at” for “at 5 to”, “days (reference value: 3.69 log10CFU/ml)” for “days”; type: functional; conditions: time 2 day
Staphylococcus aureus [26] = assay: as §1, with “reduction” for “decrease”, “bacterial load” for “IL-6 level”, “liver” for “blood”, “5” for “5 to 10”, “days (reference value: 7.16 log10CFU/g)” for “days”; type: functional; conditions: time 2 day
Staphylococcus aureus [27] = assay: Bactericidal activity against methicillin-resistant Staphylococcus aureus ATCC 43300 in presence of 50% human blood by Mueller Hinton broth based assay; type: functional; conditions: ATCC 43300, Blood, time <= 6 hrs
Cell membrane [28] = assay: Induction of cell membrane disruption in methicillin-resistant Staphylococcus aureus ATCC 43300 assessed as increase in protein leakage; type: cell membranes
Staphylococcus aureus [29] = assay: Bactericidal activity against methicillin-resistant Staphylococcus aureus ATCC 43300 assessed as bacterial killing at 16 microg/ml measured after 4 hrs by time-kill kinetics analysis relative to control; type: functional; conditions: dose 16 µg/ml
Cell membrane [30] = assay: Disruption of cell membrane in methicilin-resistant Staphylococcus aureus ATCC 43300 assessed as appearance of wrinkled cell membrane by scanning electron microscopic analysis; type: cell membranes
Staphylococcus aureus [31] = assay: Drug resistance, ratio of MIC for methicillin-resistant Staphylococcus aureus ATCC 43300 after 20 passages to MIC for methicillin-resistant Staphylococcus aureus ATCC 43300 during first exposure; type: functional
Staphylococcus aureus [32] = assay: as §1, with “reduction” for “decrease”, “number of surviving bacterial colonies” for “IL-6 level”, “liver” for “blood”, “5” for “5 to 10”, “days relative to control” for “days”; type: functional; conditions: time 2 day
Cell membrane [33] = assay: Disruption of cell membrane integrity in methicillin-resistant Staphylococcus aureus ATCC 43300 assessed as appearance of red fluorescence by DAPI/PI staning based microscopic analysis; type: cell membranes

CCCCN(CCCC)CCCNCCCOc1c(C(C)=O)ccc2c1C=CC(C)(CCC=C(C)C)O2 (configuration not stated)
MBC (Staphylococcus aureus [1]): 8 µg/mL (≈ 15.6 µM)
Activity (Staphylococcus aureus [2]): Active
inhibition at 16 µg/mL (Staphylococcus aureus [3]): > 92%
Activity (Staphylococcus aureus [4]): 2.84 log10CFU/g
Activity (Cell membrane [5]): Active
MIC (Enterococcus faecalis): 4 µg/mL (≈ 7.8 µM)
Activity (Staphylococcus aureus [6]): 1.1 log10CFU/ml
Activity (Cell membrane [7]): Active
fold change (FC) (Staphylococcus aureus [8]): 5
Activity (Staphylococcus aureus [9]): 100%
MIC (Klebsiella pneumoniae): 4 µg/mL (≈ 7.8 µM)
Activity (Staphylococcus aureus [10]): 26.69%
Activity (Staphylococcus aureus [11]): 99%
Activity (Staphylococcus aureus [12]): Active
Activity (Staphylococcus aureus [13]): 2.69 log10CFU/g
MIC (Bacillus subtilis): 2 µg/mL (≈ 3.9 µM)
MIC (Escherichia coli): 4 µg/mL (≈ 7.8 µM)
Activity (Staphylococcus aureus [14]): Active
Activity (Staphylococcus aureus [15]): 95.9%
Activity (Cell membrane [16]): Dose-Dependent Effect
Activity (Cell membrane [17]): inactive
MBC (Staphylococcus aureus [18]): 16 µg/mL
selectivity ratio (Staphylococcus aureus [19]): <2
fold change (FC) (Cell membrane [20]): 15
Activity (Staphylococcus aureus [21]): 2 log10CFU/g
Activity (Staphylococcus aureus [22]): Dose-Dependent Effect
selectivity ratio [23]: 65.6
Activity (Cell membrane [24]): Active
Activity (Staphylococcus aureus [25]): 1.46 log10CFU/ml
Activity (Staphylococcus aureus [26]): 1.98 log10CFU/g
MBC (Staphylococcus aureus [27]): 32 µg/mL
Activity (Cell membrane [28]): Active
Activity (Staphylococcus aureus [29]): >=99.9%
Activity (Cell membrane [30]): Active
Ratio (Staphylococcus aureus [31]): 2
Activity (Staphylococcus aureus [32]): 98.9%
Activity (Cell membrane [33]): Active

— ChEMBL document CHEMBL5614413, “Design, synthesis and biological evaluation of amphiphilic benzopyran derivatives as potent antibacterial agents against multidrug-resistant bacteria” (Eur J Med Chem, 2024)
